Assays:
[1] = tested on: hexobarbital oxidase; assay: hexobarbital narcosis period (change of hexobarbital oxidase activity in vivo); set-up: species or system rat; conditions: mean ± S.E.; for Hexobarbital Narcosis period in % of the control, 1 hour: 1 hour after administration; for Hexobarbital Narcosis period in % of the control (24 hours): 24 hours after administration
Description: The enzyme inhibiting activity of the new compounds was tested in vivo, by measuring the change of hexobarbital oxidase activity. Female Hann.-Wistarrats, each weighing 50 to 60 g. were treated orally with a single 40 mg./kg. dose of the test compound. 1 and 24 hours after the administration of the active ingredient, the animals were narcotized with a 60 mg./kg. i.v. dosage of hexobarbital sodium, and the time elapsed until complete wakening was measured (Noordhoek, J.: Eur. J. Pharmacol., 3, 242 (1968)). The data were recorded, and the mean values, the standard errors, as well as the percentage increase with respect to the controls were calculated for each group. […] The hexobarbital concentration of the plasm, measured on the instant wakening, was the same for both the treated and the control animals, and thus the increase of narcosis period was not due to a certain central nervous interaction (Jori, A. et al.: Biochem. Pharmacol., 19, 2687 (1970)).

[2] = tested on: aminopyrine demethylase; assay: aminopyrine demethylase activity of liver after oral treatment; format: in vivo, rat; conditions: female H.Wistar rats, single 40 mg./kg. oral dose, liver taken two hours after treatment, results in % of the control (control = 260.7 ± 11.2 nmoles/g/min), mean ± S.E., the values are: activity
Description: The enzyme inhibiting activity of the compounds of the formula (I) was further tested by determining the activity of the polysubstrate monooxygense enzyme system of the liver after treatment with the placebo and the compounds according to the invention, respectively. Female H.Wistar rats weighing 50 to 60 g. each were administered a single 40 mg./kg. dose of the test compounds, orally. Two hours after treatment the animals were decapitated and the livers were eliminated. After rinsing with a physiological saline solution at 0° C., drying and weighing, the livers were homogenized in a 0.1 molar Tris-HCl buffer (pH=7.2), containing 1.15% of potassium chloride at 0° C., centrifuged at 9000 g for 20 minutes, and the supernatant (postmitochondrial fraction) was used for further investigations. The microsomal fraction was prepared following the method developed by Cinti D. L. et al.: Biochem. Pharmacol., 21, 3249 (1972). The activity of aniline hydroxylase was determined from the velocity of p-amino-phenol formation according to Chabra R. S. et al.: Toxicol. Appl. Pharmacol., 22, 50 ( 1972). The activity of the aminopyrine demethylase was measured from the amount of the formaldehyde formed, according to Gourlay G. K. et al.: Biochem. Pharmacol., 27, 965 (1978). The control groups were treated with a placebo.

[3] = acute toxicity; conditions: rat, in vivo, po; H-Wistar rats of both sexes, single 500 mg./kg. p.o., observed for 14 days; read-out: Perished animals (%)
Description: The acute toxicity of the compounds of the formula (I) was tested on H-Wistar rats of both sexes, weighing 160 to 180 g. each. The compounds were administered in a single 500 mg./kg. dose, orally.

[4] = from H. Ippen: Index Pharmacorum (1970); cited from earlier work
[5] = female Hann.-Wistar rats, single 40 mg./kg. oral dose, hexobarbital sodium 60 mg./kg. i.v.
[6] = reference compound, dose 100 mg/kg

| Compound | Hexobarbital Narcosis period in % of the control, 1 hour [1, 5] | Hexobarbital Narcosis period in % of the control (24 hours) [1, 5] | Aminopyrine demethylase [2] [%] | mortality at 336 h [3] [%] | Hexobarbital Narcosis period in % of the control, 1 hour [1, 6] | Hexobarbital Narcosis period in % of the control (24 hours) [1, 6] | anticonvulsive side effect [4] |
| --- | --- | --- | --- | --- | --- | --- | --- |
| CCC(O)(c1ccc(Cl)cc1)c1ccc(OCc2cccc(C)n2)cc1 (centres unmarked) [A, 2-methyl-6-{4-[1-(4-chlorophenyl)-1-hydroxypropyl]-phenoxymethyl}-pyridine] | 259 ± 11.4 % of the control | 155 ± 9.6 % of the control | 55 ± 4.4 | 0 | – | – | – |
| CCC(O)(c1ccc(OCc2cccc(C)n2)cc1)c1cc(C)ccc1C (centres unmarked) [B, 2-methyl-6-{4-[1-(2,5-dimethylphenyl)-1-hydroxypropyl]-phenoxymethyl}-pyridine] | 135 ± 6.7 % of the control | 174 ± 7.2 % of the control | 63 ± 4.4 | 0 | – | – | – |
| CCCC(C(=O)OCCN(CC)CC)(c1ccccc1)c1ccccc1 [Proadiphene, (2-diethylaminoethyl)-α,α-diphenyl valerate, reference compound] | – | – | – | – | 241 ± 9.6 % of the control | 44 ± 5.7 % of the control | exerted an anticonvulsive side effect |
